From patent US20170202792A1, “METHOD FOR TREATING TAU-ASSOCIATED DISEASES” (NATIONAL TAIWAN NORMAL UNIVERSITY, priority 2016, published 2017)

Tested on: SH-SY5Y tauRD-DsRed cells
Assay: Neurite outgrowth in SH-SY5Y tauRD-DsRed cells (TUBB3 staining)
Type: cell-based, human
Conditions: 10 μM, pre-treated 8 hours, doxycycline 7 days; untreated = 100%
Method: We used SH-SY5Y human cells expressing a DsRed-tagged proaggregation mutant (ΔK280) of the C-terminal repeat domain of tau (tauRD-Gln^244-Glu^372 of the longest tau^441 isoform). The recombinant tauRD-DsRed construct was under the control of a tetracycline-regulated, hybrid human cytomegalovirus (CMV)/TetO2 promoter that can be induced by adding doxycycline. The cell lines were grown in medium containing blasticidin (5 μg/mL) and hygromycin (100 μg/mL).
SH-SY5Y tauRD-DsRed cells were seeded in 6-well plates (1×10^5/well) in a medium containing all-trans retinoic acid (10 μM, Sigma). After 48 hours of incubation, cells were pre-treated with 10 μM Congo red and 10 μM compound (I) for 8 hours; after which, tauRD-DsRed expression was induced with 1μg/mL doxycycline for 7 days. The cells were then fixed in 4% paraformaldehyde, permeabilized with 0.1% Triton X-100, blocked in 3% BSA, and then stained with the primary antibody anti-TUBB3 (against neuronal Class III β-tubulin) (1:1000; Covance) and with a secondary anti-rabbit Alexa Fluor® 555 antibody (1:500; Molecular Probes). Nuclei were counterstained with 4′,6-diamidino-2-phenylindole (DAPI). The total outgrowth in the untreated, Congo red-treated, and compound (I)-treated cells was assessed using MetaXpress image acquisition and analysis software.

Nc1c(/N=N/c2ccc(-c3ccc(/N=N/c4cc(S(=O)(=O)O)c5ccccc5c4N)cc3)cc2)cc(S(=O)(=O)O)c2ccccc12 [Congo red, reference compound]
neurite growth relative to untreated cells: 110%
